Patent US9777003B2, “Tricyclic heterocycles as bet protein inhibitors” (Incyte Corporation, priority 2013, dated 2017)
Structures can show the parent of a compound that is named as a salt.

Columns and labels:
[1] = target: BRD4-BD2 (Homo sapiens (Human), UniProt O60885); experiment: BRD4 AlphaScreen assay, BRD4-BD2; assay type: binding; settings: biotin-labeled tetra-acetylated histone H4 peptide, 75 min, room temperature, read-out: BRD4 BD-2 enzyme IC50
Outline: (§1)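 Displacement of 50 nM biotinylated tetra-acetylated H4 peptide (H4Ac4) from BRD4-BD1 (3.8 nM) or BRD4-BD2 (20 nM) in HEPES pH 7.4, 100 mM NaCl, CHAPS, BSA; 75 min at room temperature. Streptavidin donor/GSH acceptor beads were added for a further 75 min in the dark; IC50 from percent control activity versus log concentration.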

[2] = target: BRD4-BD1 (Homo sapiens (Human), UniProt O60885); experiment: BRD4 AlphaScreen assay, BRD4-BD1; assay type: binding; settings: biotin-labeled tetra-acetylated histone H4 peptide, 75 min, room temperature, read-out: BRD4 BD-1 enzyme IC50
Outline: as §1

Cc1cc2c(cc(NC3CCN(C)CC3)c3nnc(C)n32)n1Cc1ccccc1 [Example 207, 6-Benzyl-1,7-dimethyl-N-(1-methylpiperidin-4-yl)-6H-pyrrolo[2,3-e][1,2,4]triazolo[4,3-a]pyridin-4-amine]
IC50 [1]: ≤ 100 nM
IC50 [2]: ≤ 100 nM

Cc1nnc2ccc3c(cnn3Cc3ccccc3)n12 [Example 112, 6-benzyl-1-methyl-6H-pyrazolo[3,4-e][1,2,4]triazolo[4,3-a]pyridine]
IC50 [1]: 100 to 1000 nM
IC50 [2]: 100 to 1000 nM

Cc1nnc2ccc3c(cc(C(=O)NCC(C)C)n3Cc3ccccc3)n12 [Example 125, 6-Benzyl-N-isobutyl-1-methyl-6H-pyrrolo[2,3-e][1,2,4]triazolo[4,3-a]pyridine-7-carboxamide Trifluoroacetate]
IC50 [1]: 100 to 1000 nM
IC50 [2]: 100 to 1000 nM

Cc1nnc2ccc3c(cc(-c4ccn(C)n4)n3Cc3ccccc3)n12 [Example 76, 6-benzyl-1-methyl-7-(1-methyl-1H-pyrazol-3-yl)-6H-pyrrolo[2,3-e][1,2,4]triazolo[4,3-a]pyridine]
IC50 [1]: ≤ 100 nM
IC50 [2]: ≤ 100 nM

Cc1cc2c(cc(N[C@H]3CC[C@H](N)CC3)c3nnc(C)n32)n1Cc1ccccc1 [Example 217, trans-N-(6-Benzyl-1,7-dimethyl-6H-pyrrolo[2,3-e][1,2,4]triazolo[4,3-a]pyridin-4-yl)cyclohexane-1,4-diamine]
IC50 [1]: ≤ 100 nM
IC50 [2]: ≤ 100 nM

Cc1nnc2ccc3c(cc(-c4ccccn4)n3Cc3ccccc3)n12 [Example 68, 6-benzyl-1-methyl-7-pyridin-2-yl-6H-pyrrolo[2,3-e][1,2,4]triazolo[4,3-a]pyridine]
IC50 [1]: ≤ 100 nM
IC50 [2]: 100 to 1000 nM

Cc1cc2c(cc(NC(=O)C3CC3)c3nnc(C)n32)n1Cc1ccccc1 [Example 269, N-(6-Benzyl-1,7-dimethyl-6H-pyrrolo[2,3-e][1,2,4]triazolo[4,3-a]pyridin-4-yl)cyclopropanecarboxamide]
IC50 [1]: ≤ 100 nM
IC50 [2]: ≤ 100 nM

Cc1cc2c(cc(Nc3ccncc3)c3nnc(C)n32)n1Cc1ccccc1 [Example 255, 6-Benzyl-1,7-dimethyl-N-(pyridin-4-yl)-6H-pyrrolo[2,3-e][1,2,4]triazolo[4,3-a]pyridin-4-amine]
IC50 [1]: ≤ 100 nM
IC50 [2]: 100 to 1000 nM

Cc1cc2c(cc(N[C@H]3CCOC3)c3nnc(C)n32)n1Cc1ccccc1 [Example 148, 6-benzyl-1,7-dimethyl-N-[(3S)-tetrahydrofuran-3-yl]-6H-pyrrolo[2,3-e][1,2,4]triazolo[4,3-a]pyridin-4-amine]
IC50 [1]: ≤ 100 nM
IC50 [2]: ≤ 100 nM

Cc1nnc2ccc3c(cc(-c4cncs4)n3Cc3ccccc3)n12 [Example 69, 6-benzyl-1-methyl-7-(1,3-thiazol-5-yl)-6H-pyrrolo[2,3-e][1,2,4]triazolo[4,3-a]pyridine]
IC50 [1]: ≤ 100 nM
IC50 [2]: 100 to 1000 nM

Cc1nc2c(ccc3nnc(C)n32)n1Cc1ccccc1 [Example 55, 3-benzyl-2,8-dimethyl-3H-imidazo[4,5-e][1,2,4]triazolo[4,3-a]pyridine]
IC50 [1]: ≤ 100 nM
IC50 [2]: 100 to 1000 nM

Cc1nnc2ccc3c(cc(-c4c[nH]cn4)n3Cc3cccc(Cl)c3)n12 [Example 172, 6-(3-Chlorobenzyl)-7-(1H-imidazol-4-yl)-1-methyl-6H-pyrrolo[2,3-e][1,2,4]triazolo[4,3-a]pyridine bis(trifluoroacetate) Salt]
IC50 [1]: ≤ 100 nM
IC50 [2]: ≤ 100 nM

Cc1nnc2ccc3c(cc(-c4ccn(C)n4)n3Cc3cc(Cl)cc(CN4CCOCC4)c3)n12 [Example 192, 6-[3-Chloro-5-(morpholin-4-ylmethyl)benzyl]-1-methyl-7-(1-methyl-1H-pyrazol-3-yl)-6H-pyrrolo[2,3-e][1,2,4]triazolo[4,3-a]pyridine bis(trifluoroacetate) Salt]
IC50 [1]: ≤ 100 nM
IC50 [2]: ≤ 100 nM

Cc1cc2c(ccc3nnc(C)n32)n1Cc1ccccc1F [Example 14, 6-(2-fluorobenzyl)-1,7-dimethyl-6H-pyrrolo[2,3-e][1,2,4]triazolo[4,3-a]pyridine]
IC50 [1]: ≤ 100 nM
IC50 [2]: ≤ 100 nM
